# Assay results published in patent US6869957B1, “Non-peptide tachykinin receptor antagonists” (Eli Lilly and Company, priority 1993, dated 2005).
# How the values were obtained:
# [1] = target: T1, NK-1 receptor (Homo sapiens, UniProt P25103); test: NK-1 Receptor Binding Assay (125I-labeled substance P, IM9 cells); conditions: for IC50: inhibits fifty percent of binding of 125I-substance P to IM9 cells
# T1 construct: endogenous in cells; host or cells: IM9 cells (human cell line), whole cells
# Summary of the method: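 Radioligand binding on human IM9 cells, ended by filtration over glass fiber filters presoaked in 0.1% polyethylenimine. Specific binding of labeled substance P defined with 20 nM unlabeled ligand.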
# [2] = target: T2, human NK-2 receptor (Homo sapiens, UniProt P21452); test: NK-2 Receptor Binding Assay ([125I]iodohistidyl-neurokinin A, CHO-hNK-2R membranes); conditions: for IC50: inhibits fifty percent of binding of [125I]iodohistidyl-neurokinin A to CHO-hNK-2R membranes; for NK-2 percent inhibition of binding: @ 10 μM
# T2 construct: expressed in transfected cells; host or cells: CHO-hNK-2R cells (CHO-derived), membrane preparation
# T2 sequence (P21452 1-398): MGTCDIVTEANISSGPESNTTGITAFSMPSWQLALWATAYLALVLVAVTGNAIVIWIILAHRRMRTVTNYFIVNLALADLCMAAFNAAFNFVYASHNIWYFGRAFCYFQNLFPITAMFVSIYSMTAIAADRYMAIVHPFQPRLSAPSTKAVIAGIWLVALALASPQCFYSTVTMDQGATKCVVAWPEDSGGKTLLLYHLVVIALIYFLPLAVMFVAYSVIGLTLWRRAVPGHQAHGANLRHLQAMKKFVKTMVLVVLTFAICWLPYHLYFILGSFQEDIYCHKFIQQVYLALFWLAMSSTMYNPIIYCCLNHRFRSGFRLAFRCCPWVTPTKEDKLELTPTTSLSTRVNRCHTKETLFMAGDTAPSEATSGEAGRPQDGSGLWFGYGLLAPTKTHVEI
# Summary of the method: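 Membranes from CHO cells stably expressing human NK-2 receptor (~400,000/cell), 40 μg protein per sample, in 50 mM Tris pH 7.4 with 3 mM MnCl2, 0.02% BSA, 4 μg/ml chymostatin. Displacement of 20 pM [125I]iodohistidyl-neurokinin A, 1 hr at room temperature; GF/B filtration, gamma counting. Non-specific binding defined with 1 μM eledoisin.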
# T1 sequence (P25103 whole entry): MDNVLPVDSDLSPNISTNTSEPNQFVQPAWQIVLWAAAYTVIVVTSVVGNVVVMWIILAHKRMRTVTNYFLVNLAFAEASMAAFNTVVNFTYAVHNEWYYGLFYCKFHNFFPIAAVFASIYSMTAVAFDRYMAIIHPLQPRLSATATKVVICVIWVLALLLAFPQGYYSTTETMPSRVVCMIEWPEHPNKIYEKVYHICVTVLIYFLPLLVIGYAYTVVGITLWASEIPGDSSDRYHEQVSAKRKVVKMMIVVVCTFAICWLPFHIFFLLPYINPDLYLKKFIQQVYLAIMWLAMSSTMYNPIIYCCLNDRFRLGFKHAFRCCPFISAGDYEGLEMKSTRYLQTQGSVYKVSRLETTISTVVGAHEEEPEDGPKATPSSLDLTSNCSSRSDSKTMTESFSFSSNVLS
IC50 [2],IC50 [1],NK-1 percent inhibition of binding ([1]; @ 5 μM),SMILES,also measured
2 µM,0.19 µM,–,CC(=O)NC(Cc1c[nH]c2ccccc12)CN(Cc1ccccc1Cl)C(=O)CN1CCC(N2CCCCC2)CC1 (stereo not shown) [Example 109],–
0.49 µM,1.2 µM,–,COc1ccccc1CNCC(Cc1c[nH]c2ccc(Br)cc12)NC(=O)CN1CCN(c2ccccc2)CC1 (stereo not shown) [Example 111],–
0.94 µM,0.0292 µM,–,COc1ccccc1CN(CC(Cc1c[nH]c2cc(C)ccc12)NC(=O)CN1CCN(c2ccccc2)CC1)C(C)=O (stereo not shown) [Example 114],–
2.7 µM,0.0095 µM,–,CC(=O)N(Cc1ccccc1)CC(Cc1c[nH]c2ccc(F)cc12)NC(=O)CN1CCC(N2CCCCC2)CC1 (stereo not shown) [Example 119],–
3.4 µM,0.0028 µM,–,COc1ccccc1CN(CC(Cc1c[nH]c2ccc(C)cc12)NC(=O)CN1CCC(N2CCCCC2)CC1)C(C)=O (stereo not shown) [Example 126],–
3 µM,0.0073 µM,–,COc1ccccc1CN(CC(Cc1c[nH]c2cc(C)ccc12)NC(=O)CN1CCC(N2CCCCC2)CC1)C(C)=O (stereo not shown) [Example 127],–
0.71 µM,–,–,COc1ccccc1CNCC(Cc1ccc2ccccc2c1)NC(=O)CN1CCN(c2ccccc2)CC1 (stereo not shown) [Example 136],NK-1 percent inhibition of binding ([1]; @ 1 μM): 47% @
2.5 µM,0.77 µM,–,COc1ccccc1CN(CC(NC(=O)CN1CCN(c2ccccc2)CC1)c1ccccc1)C(C)=O (stereo not shown) [Example 138],–
0.58 µM,0.396 µM,–,COc1ccccc1CN(CC(NC(=O)CN1CCN(c2ccccc2)CC1)c1ccc(Cl)c(Cl)c1)C(C)=O (stereo not shown) [Example 139],–
3 µM,0.0031 µM,–,COc1ccccc1CN(CC(Cc1ccccc1)NC(=O)CN1CCN(c2ccccc2)CC1)C(C)=O (stereo not shown) [Example 140],–
0.83 µM,0.0086 µM,–,COc1ccccc1CN(CC(Cc1ccc2ccccc2c1)NC(=O)CN1CCN(c2ccccc2)CC1)C(C)=O (stereo not shown) [Example 142],–
0.43 µM,0.196 µM,–,COc1ccccc1CN(CC(NC(=O)CN1CCC(N2CCCCC2)CC1)c1ccc(Cl)c(Cl)c1)C(C)=O (stereo not shown) [Example 147],–
8.5 µM,0.024 µM,–,COc1ccccc1CN(CC(Cc1ccccc1)NC(=O)CN1CCC(N2CCCCC2)CC1)C(C)=O (stereo not shown) [Example 148],–
12.2 µM,–,63% @,CN(CC(Cc1c[nH]c2ccccc12)NC(=O)CN1CCC(N2CCCCC2)CC1)C(=O)c1ccccc1 (stereo not shown) [Example 155],–
9.5 µM,–,78% @,CC(=O)NC1(c2ccccc2)CCN(CC(=O)NC(Cc2c[nH]c3ccccc23)CN(C)C(=O)c2ccccc2)CC1 (stereo not shown) [Example 156],–
–,–,54% @,COc1ccccc1CN(CC(N)Cc1ccccc1)C(C)=O (stereo not shown) [Example 159],NK-2 percent inhibition of binding [2]: 11 @ %
–,–,24% @,COc1ccccc1CN(CC(NC(=O)CBr)c1ccccc1)C(C)=O (stereo not shown) [Example 161],NK-2 percent inhibition of binding [2]: 0% @
17.6 µM,–,77% @,COc1ccccc1CN(CC(Cc1ccccc1)NC(=O)CBr)C(C)=O (stereo not shown) [Example 161a],–
–,0.375 µM,–,COc1ccccc1CN(CC(Cc1cn(C)c2ccccc12)NC(=O)CBr)C(C)=O (stereo not shown) [Example 162],NK-2 percent inhibition of binding [2]: 0% @
10.5 µM,–,3% @ 5 μM,CCCCN(CC(Cc1c[nH]c2ccccc12)NC(c1ccccc1)(c1ccccc1)c1ccccc1)C(C)=O (stereo not shown) [Example 165],–
21 µM,–,0% @ 5 μM,CC(=O)N(CC(Cc1c[nH]c2ccccc12)NC(c1ccccc1)(c1ccccc1)c1ccccc1)c1ccccc1 (stereo not shown) [Example 167],–
> 100 µM,–,13% @,CC(=O)N(CCc1ccccc1)CC(Cc1c[nH]c2ccccc12)NC(c1ccccc1)(c1ccccc1)c1ccccc1 (stereo not shown) [Example 168],–
–,0.067 µM,–,CC(=O)N(Cc1ccccc1Cl)CC(Cc1c[nH]c2ccccc12)NC(c1ccccc1)(c1ccccc1)c1ccccc1 (stereo not shown) [Example 170],NK-2 percent inhibition of binding [2]: 2% @
–,–,0% @ 5 μM,COc1ccccc1CN(CC(Cc1c[nH]c2cc(C)ccc12)NC(c1ccccc1)(c1ccccc1)c1ccccc1)C(C)=O (stereo not shown) [Example 171],NK-2 percent inhibition of binding [2]: 6% @
2 µM,0.074 µM,–,COc1ccccc1CNCC(NC(c1ccccc1)(c1ccccc1)c1ccccc1)c1ccccc1 (stereo not shown) [Example 173],–
6.4 µM,–,0% @ 5 μM,COc1ccccc1CNCC(Cc1ccccc1)NC(c1ccccc1)(c1ccccc1)c1ccccc1 (stereo not shown) [Example 174],–

# The next lines start with the molecule.
SMILES,IC50 [2],IC50 [1],NK-1 percent inhibition of binding ([1]; @ 5 μM),also measured
COc1ccccc1CN(CC(Cc1c[nH]c2ccccc12)NC(C)=O)C(=O)CN1CCN(c2ccccc2)CC1 (stereo not shown) [Example 107],0.42 µM,–,–,NK-1 percent inhibition of binding ([1]; @ 1 μM): 74% @
CC(=O)NC(Cc1c[nH]c2ccccc12)CN(Cc1ccccc1)C(=O)CN1CCC(N2CCCCC2)CC1 (stereo not shown) [Example 108],3.5 µM,–,–,NK-1 percent inhibition of binding ([1]; @ 1 μM): 76% @
CC(=O)NC(Cc1c[nH]c2ccccc12)CN(CCc1ccccc1)C(=O)CN1CCN(c2ccccc2)CC1 (stereo not shown) [Example 110],0.12 µM,0.148 µM,–,–
COc1ccccc1CN(CC(Cc1cn(C)c2ccccc12)NC(=O)CN1CCN(c2ccccc2)CC1)C(C)=O (stereo not shown) [Example 113],1.2 µM,0.0078 µM,–,–
COc1ccccc1CN(CC(Cc1c[nH]c2ccc(Br)cc12)NC(=O)CN1CCN(c2ccccc2)CC1)C(C)=O (stereo not shown) [Example 116],0.93 µM,0.058 µM,–,–
COc1ccccc1CNCC(Cc1c[nH]c2cc(F)ccc12)NC(=O)CN1CCC(N2CCCCC2)CC1 (stereo not shown) [Example 123],2.5 µM,0.027 µM,–,–
COc1ccccc1CN(CC(Cc1cn(C)c2ccccc12)NC(=O)CN1CCC(N2CCCCC2)CC1)C(C)=O (stereo not shown) [Example 124],1.4 µM,0.00093 µM,–,–
COc1ccccc1CN(CC(Cc1c[nH]c2cccc(C)c12)NC(=O)CN1CCC(N2CCCCC2)CC1)C(C)=O (stereo not shown) [Example 125],2.1 µM,0.00066 µM,–,–
COc1ccccc1CNCC(Cc1cccc2ccccc12)NC(=O)CN1CCN(c2ccccc2)CC1 (stereo not shown) [Example 135],0.43 µM,–,–,NK-1 percent inhibition of binding ([1]; @ 1 μM): 75% @
COc1ccccc1CN(CC(Cc1cccc2ccccc12)NC(=O)CN1CCN(c2ccccc2)CC1)C(C)=O (stereo not shown) [Example 141],0.26 µM,0.011 µM,–,–
COc1ccccc1CN(CC(NC(=O)CN1CCC(N2CCCCC2)CC1)c1ccccc1)C(C)=O (stereo not shown) [Example 146],3.9 µM,0.42 µM,–,–
"CC(C)(C)OC(=O)NCC(Cc1c[nH]c2ccccc12)NC(=O)CN1CCN(c2ccccc2)CC1 (stereo not shown) [Example 151, 1-t-butoxycarbonylamino-3-(1H-indol-3-yl)-2-[N-(2-((4-phenyl)piperazin-1-yl)acetyl)amino]propane]",1.7 µM,1.4 µM,–,–
O=C(CN1CCN(c2ccccc2)CC1)NC(CNC(=O)c1ccccc1)Cc1c[nH]c2ccccc12 (stereo not shown) [Example 152],2 µM,1.2 µM,–,–
O=C(CN1CCN(c2ccccc2)CC1)NC(CNCC1CCCCC1)Cc1c[nH]c2ccccc12 (stereo not shown) [Example 153],0.54 µM,0.65 µM,–,–
CC(C)(C)OC(=O)NCC(=O)N(CC1CCCCC1)CC(Cc1c[nH]c2ccccc12)NC(=O)CN1CCN(c2ccccc2)CC1 (stereo not shown) [Example 154],0.21 µM,–,–,NK-1 percent inhibition of binding ([1]; @ 1 μM): 76% @
CN(CC(Cc1c[nH]c2ccccc12)NC(=O)CN1CCN(c2ccccc2)CC1)C(=O)c1ccccc1 (stereo not shown) [Example 157],2.9 µM,–,88% @,–
CN(CC(Cc1c[nH]c2ccccc12)NC(=O)CN1CCN(C2CCCCC2)CC1)C(=O)c1ccccc1 (stereo not shown) [Example 158],3.8 µM,0.45 µM,–,–
COc1ccccc1CN(CC(N)Cc1cn(C)c2ccccc12)C(C)=O (stereo not shown) [Example 160],19 µM,–,0% @,–
CC(=O)N(C)CC(Cc1c[nH]c2ccccc12)NC(c1ccccc1)(c1ccccc1)c1ccccc1 (stereo not shown) [Example 164],6.2 µM,–,0% @ 5 μM,–
CCCCCCN(CC(Cc1c[nH]c2ccccc12)NC(c1ccccc1)(c1ccccc1)c1ccccc1)C(C)=O (stereo not shown) [Example 166],10 µM,–,0% @ 5 μM,–
COc1ccccc1CNCC(Cc1c[nH]c2cc(C)ccc12)NC(c1ccccc1)(c1ccccc1)c1ccccc1 (stereo not shown) [Example 169],13.9 µM,–,8% @ 5 μM,–
COc1ccccc1CN(CC(NC(c1ccccc1)(c1ccccc1)c1ccccc1)c1ccccc1)C(C)=O (stereo not shown) [Example 175],–,–,28% @,NK-2 percent inhibition of binding [2]: 9% @
COc1ccccc1CN(CC(NC(c1ccccc1)(c1ccccc1)c1ccccc1)c1ccc(Cl)c(Cl)c1)C(C)=O (stereo not shown) [Example 176],–,–,9% @ 5 μM,NK-2 percent inhibition of binding [2]: 0% @
COc1ccccc1CN(CC(Cc1ccccc1)NC(c1ccccc1)(c1ccccc1)c1ccccc1)C(C)=O (stereo not shown) [Example 177],–,–,–,NK-1 percent inhibition of binding ([1]; @ 10 μM): 0% @; NK-2 percent inhibition of binding [2]: 12% @
